Some test systems named below: MCF7 breast; A498 renal; SK-OV-3 ovarian; MDA-MB-435; HT29 colon; KM12 colon; SF-295 CNS; MOLT-4 leukemia; SNB-75 CNS; SK-MEL-5 melanoma.
Holding throughout (experiment): NCI tumour cell line growth inhibition, 48 h

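Protocol summary: plate cells (96-well), add compound at 5 concentrations, incubate 48 h, interpolate endpoints linearly. GI50 marks 50% less growth. TGI denotes the concentration required for complete inhibition of growth.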

In the case of `C/C(=N\N)C(CN1CCCCC1)C(c1ccccc1)c1c(O)c2ccccc2oc1=O` (centres undefined), the TGI in the assay on MCF7 breast, in the assay on A498 renal, in the assay on SK-OV-3 ovarian, in the assay with MDA-MB-435, with HT29 colon and in the assay on KM12 colon was more than 100 µM in each case. For the same compound, the TGI in the assay with SF-295 CNS, with MOLT-4 leukemia, in the assay on SNB-75 CNS and in the assay on SK-MEL-5 melanoma was more than 100 µM throughout.

As to `COc1cc(/C=C/C(=O)c2ccc(F)cc2)ccc1OCCCCOc1cc2c(cc1OC)C(=O)N1CCCC1C=N2` (centres undefined), the GI50 was 0.318 µM with MCF7 breast; 0.882 µM in the assay on A498 renal; 1.67 µM in the assay on SK-OV-3 ovarian; 2.71 µM in the assay on MDA-MB-435; 0.895 µM in the assay on HT29 colon; 0.762 µM in the assay on KM12 colon. Further, the GI50 in the assay on SF-295 CNS was 0.707 µM; with MOLT-4 leukemia it was 0.317 µM; in the assay with SNB-75 CNS, 0.994 µM; with SK-MEL-5 melanoma it was 0.758 µM. Also, the TGI with MCF7 breast was 6.12 µM; in the assay with A498 renal it was 5.48 µM; in the assay on SK-OV-3 ovarian, more than 44.5 µM; in the assay with MDA-MB-435, 8.01 µM; with HT29 colon it was more than 20.4 µM; in the assay on KM12 colon, 7.71 µM. The figures for the TGI in the assay with MOLT-4 leukemia, with SNB-75 CNS and in the assay on SK-MEL-5 melanoma were 2.18 µM, 15 µM and 5.37 µM, respectively.

Turning to `Oc1ccccc1/C=N/Nc1nc2ccccc2s1`, the GI50 is 1.16 µM in the assay on MCF7 breast; 32.4 µM in the assay with A498 renal; 15.2 µM in the assay with SK-OV-3 ovarian; more than 100 µM in the assay with MDA-MB-435; 21.1 µM with HT29 colon; 3.1 µM with KM12 colon. The GI50 in the assay with SF-295 CNS is 5.3 µM; in the assay on MOLT-4 leukemia it was 4.4 µM; in the assay on SNB-75 CNS, 6.55 µM; in the assay on SK-MEL-5 melanoma it was 7.36 µM. The TGI in the assay on MCF7 breast, in the assay with A498 renal, in the assay with SK-OV-3 ovarian, with MDA-MB-435, in the assay with HT29 colon and in the assay on KM12 colon was more than 100 µM each time. The TGI is more than 100 µM in the assay with SF-295 CNS, more than 100 µM in the assay on MOLT-4 leukemia, 32.2 µM in the assay with SNB-75 CNS and more than 100 µM in the assay with SK-MEL-5 melanoma.

`O=S1(=O)OCc2ccccc21`: the TGI in the assay on MCF7 breast, in the assay on A498 renal, in the assay with SK-OV-3 ovarian, in the assay with MDA-MB-435, in the assay with HT29 colon and in the assay on KM12 colon was more than 100 µM in each case. In addition, the TGI with SF-295 CNS is more than 100 µM; in the assay with MOLT-4 leukemia it was 78.9 µM; with SNB-75 CNS, more than 100 µM; in the assay on SK-MEL-5 melanoma it was more than 100 µM.

For the compound `CCN(CC)c1ccc(CNc2cc(C)nc3ccc(OC)cc23)cc1`, the GI50 in the assay on MCF7 breast is 1.7 µM; with A498 renal it was 2.24 µM; in the assay with SK-OV-3 ovarian, 10.3 µM; with MDA-MB-435, 1.67 µM; in the assay on HT29 colon, 0.955 µM; with KM12 colon, 3.1 µM. Besides, the GI50 in the assay on SF-295 CNS is 1.78 µM; with MOLT-4 leukemia, 3.16 µM; in the assay on SNB-75 CNS it was 2.04 µM; in the assay on SK-MEL-5 melanoma, 1.3 µM. Besides, the TGI in the assay with MCF7 breast came out at 3.53 µM; in the assay on A498 renal, 10.1 µM; with SK-OV-3 ovarian it was 22 µM; in the assay with MDA-MB-435, 3.38 µM; in the assay on HT29 colon, 3.59 µM; in the assay with KM12 colon, 11.6 µM. The TGI in the assay with SF-295 CNS turned out to be 3.89 µM; in the assay with MOLT-4 leukemia, 9.69 µM; in the assay on SNB-75 CNS, 5.05 µM; in the assay with SK-MEL-5 melanoma, 2.72 µM.

Turning to `COc1ccc(C2CC(c3ccc4ccccc4c3)=NN2/C=C2\SC(=S)N(NC(=O)Cc3ccccc3Nc3c(Cl)cccc3Cl)C2=O)cc1` (centres undefined), the GI50 was 0.361 µM in the assay with MCF7 breast; 0.302 µM in the assay with A498 renal; 0.847 µM with SK-OV-3 ovarian; 0.221 µM in the assay on MDA-MB-435; 2.3 µM in the assay on HT29 colon; 0.37 µM in the assay with KM12 colon. Besides, the GI50 in the assay with SF-295 CNS is 0.724 µM; in the assay on MOLT-4 leukemia it was 0.473 µM; with SNB-75 CNS, 0.257 µM; in the assay with SK-MEL-5 melanoma, 0.484 µM. The TGI in the assay on MCF7 breast was more than 50.5 µM; with A498 renal it was 0.99 µM; with SK-OV-3 ovarian, more than 100 µM; with MDA-MB-435, 0.547 µM; in the assay on HT29 colon it was more than 26.3 µM; with KM12 colon, more than 33.5 µM. Also, the TGI was more than 32.7 µM in the assay on SF-295 CNS, more than 100 µM in the assay with MOLT-4 leukemia, 1.4 µM with SNB-75 CNS and more than 36.9 µM in the assay with SK-MEL-5 melanoma.

For `COc1ccc(C(=O)OC2C(OC3C(O)COC(O[C@H]4C[C@H]5[C@@H]6CC=C7C[C@@H](O)CC[C@]7(C)[C@H]6CC[C@]5(C)[C@H]4[C@H](C)C(=O)CCC(C)C)C3OC(=O)C(C)C)OCC(O)C2O)cc1` (some centres undefined), the GI50 in the assay with MCF7 breast was 0.0136 µM; in the assay on A498 renal it was 0.00395 µM; in the assay with SK-OV-3 ovarian it was 0.0127 µM; in the assay with MDA-MB-435, 0.0154 µM; with HT29 colon, 0.0507 µM; with KM12 colon it was 0.0707 µM. Further, the GI50 in the assay with SF-295 CNS is less than 0.00275 µM; in the assay on MOLT-4 leukemia, 0.00649 µM; in the assay with SNB-75 CNS it was 0.00698 µM; in the assay with SK-MEL-5 melanoma, 0.019 µM. Further, the TGI is 2.99 µM with MCF7 breast; 0.0161 µM with A498 renal; 1.52 µM in the assay on SK-OV-3 ovarian; 0.216 µM in the assay with MDA-MB-435; 4.85 µM in the assay with HT29 colon; 4.77 µM with KM12 colon. The TGI is 0.00385 µM in the assay on SF-295 CNS, 0.0192 µM with MOLT-4 leukemia, 4.9 µM in the assay with SNB-75 CNS and 0.36 µM in the assay on SK-MEL-5 melanoma.

Turning to `C/C(=N\NC(=O)c1cccc(S(=O)(=O)N2CCN(C)CC2)c1)c1cc(Cl)ccc1O`, the GI50 in the assay on MCF7 breast is 0.423 µM; with A498 renal, 40.6 µM; with SK-OV-3 ovarian, 0.938 µM; with MDA-MB-435 it was 2.74 µM; in the assay with HT29 colon, 0.397 µM; in the assay with KM12 colon, 0.713 µM. Besides, the GI50 is 0.998 µM in the assay with SF-295 CNS, 0.47 µM in the assay on MOLT-4 leukemia, 0.648 µM in the assay with SNB-75 CNS and 1.29 µM in the assay on SK-MEL-5 melanoma. For the same compound, the TGI with MCF7 breast is more than 100 µM; with A498 renal, more than 100 µM; in the assay on SK-OV-3 ovarian, more than 54.6 µM; in the assay with MDA-MB-435 it was more than 100 µM; with HT29 colon, 20.1 µM; in the assay on KM12 colon it was more than 66.8 µM. The TGI with SF-295 CNS is 21.9 µM; in the assay on MOLT-4 leukemia, more than 49.4 µM; in the assay on SNB-75 CNS, 32.3 µM; in the assay on SK-MEL-5 melanoma, 3.87 µM.

Consider `Cc1ccccc1NC(=O)N/C(N)=N/c1nc(C)c(C)s1`, for which the GI50 is 0.142 µM in the assay with MCF7 breast; 0.125 µM in the assay with A498 renal; 0.596 µM in the assay on SK-OV-3 ovarian; 0.0332 µM with MDA-MB-435; 0.104 µM in the assay on HT29 colon; 0.206 µM in the assay on KM12 colon. Further, the GI50 is 0.164 µM in the assay on SF-295 CNS, 0.467 µM with MOLT-4 leukemia, 0.175 µM with SNB-75 CNS and 0.282 µM in the assay on SK-MEL-5 melanoma. In addition, the TGI in the assay on MCF7 breast is more than 100 µM; with A498 renal, 0.803 µM; in the assay with SK-OV-3 ovarian, more than 100 µM; with MDA-MB-435, 0.468 µM; in the assay on HT29 colon, more than 33 µM; in the assay with KM12 colon, more than 100 µM. Moreover, the TGI in the assay on SF-295 CNS was more than 100 µM; with MOLT-4 leukemia, more than 100 µM; with SNB-75 CNS it was 0.754 µM; with SK-MEL-5 melanoma it was more than 100 µM.

For the compound `O=C(CC(O)c1cccnc1)CC(O)c1cccnc1` (centres undefined), the TGI was found to be 20 µM with MCF7 breast; 30.6 µM with A498 renal; 32.6 µM in the assay on SK-OV-3 ovarian; 55.3 µM in the assay on MDA-MB-435; 20.7 µM with HT29 colon; 26.7 µM in the assay with KM12 colon. Besides, the TGI with SF-295 CNS was 30.7 µM; in the assay with MOLT-4 leukemia it was more than 52.1 µM; in the assay with SNB-75 CNS, 35.4 µM; with SK-MEL-5 melanoma it was 32.2 µM.

Consider `S=P(C1CCCCC1)(C1CCCCC1)C(c1cccnc1)N1CCCC1` (centres undefined), for which the TGI with MCF7 breast was more than 100 µM; with A498 renal, 67.9 µM; in the assay with SK-OV-3 ovarian, more than 100 µM; with MDA-MB-435 it was 33.6 µM; in the assay on HT29 colon it was more than 100 µM; in the assay with KM12 colon, 33.4 µM. Further, the TGI with SF-295 CNS was 49.2 µM; with MOLT-4 leukemia it was 42.7 µM; in the assay with SNB-75 CNS it was 35.4 µM; in the assay with SK-MEL-5 melanoma, 31.9 µM.

For the compound `CN(C)C(=O)C(NCCO)c1ccccc1` (centres undefined), the TGI with MCF7 breast, in the assay with A498 renal, in the assay with SK-OV-3 ovarian, in the assay with MDA-MB-435, in the assay on HT29 colon and with KM12 colon was more than 100 µM in each case. For the same compound, the TGI with SF-295 CNS, with MOLT-4 leukemia, in the assay with SNB-75 CNS and in the assay with SK-MEL-5 melanoma was more than 100 µM in each case.

Turning to `C=C(C)[C@@H]1CC[C@]2(C(=O)N3CCN(C)CC3)CC[C@]3(C)[C@H](CC[C@@H]4[C@@]5(C)C/C(=C/c6ccncc6)[C@H](O)C(C)(C)[C@@H]5CC[C@]43C)[C@@H]12`, the GI50 is 3.29 µM in the assay on MCF7 breast; 17.4 µM in the assay on A498 renal; 12 µM in the assay on SK-OV-3 ovarian; 8.29 µM in the assay with MDA-MB-435; 1.88 µM in the assay with HT29 colon; 3.86 µM in the assay on KM12 colon. Also, the GI50 in the assay on SF-295 CNS was 7.2 µM; in the assay with MOLT-4 leukemia, 2.36 µM; in the assay with SNB-75 CNS, 51.4 µM; in the assay with SK-MEL-5 melanoma, 5.98 µM. The TGI in the assay with MCF7 breast came to 13.8 µM; in the assay on A498 renal, 41.1 µM; in the assay on SK-OV-3 ovarian, 96.5 µM; in the assay with MDA-MB-435, 33.9 µM; in the assay on HT29 colon, 11.2 µM; with KM12 colon it was 17.7 µM. Also, the TGI in the assay on SF-295 CNS was 25.5 µM; with MOLT-4 leukemia, 11 µM; in the assay on SNB-75 CNS, more than 100 µM; in the assay on SK-MEL-5 melanoma, 18.5 µM.

Consider `COc1ccc2c3c(ccc2c1)NC(C(=O)O)CC3` (centres undefined), for which the TGI in the assay with MCF7 breast, in the assay on A498 renal, in the assay with SK-OV-3 ovarian, in the assay with MDA-MB-435, in the assay with HT29 colon and in the assay on KM12 colon was more than 100 µM throughout. Further, the TGI in the assay on SF-295 CNS was more than 100 µM; in the assay on MOLT-4 leukemia, 56.9 µM; in the assay on SNB-75 CNS, more than 100 µM; in the assay with SK-MEL-5 melanoma, 64.7 µM.
